In publication PMC9609173, “Preparation and Evaluation of [^18F]AlF-NOTA-NOC for PET Imaging of Neuroendocrine Tumors: Comparison to [^68Ga]Ga-DOTA/NOTA-NOC” (Molecules, 2022):
Where a SMILES comes first, the peptide text is derived from it. Bridges are numbered along the chain shown (N, C = ends). [ ]: non-standard residue; d: D form. The star is where a group is joined. DOTA = O=C(O)CN1CCN(CC(=O)O)CCN(CC(=O)*)CCN(CC(=O)O)CC1; 1Nal = N[C@@H](Cc1cccc2ccccc12)C(=O)O; Thr(ol) = C[C@@H](O)[C@H](N)CO

Columns and labels:
[1] = system: AR42J xenograft; format: in vivo, mice
Description: All animal experiments were planned and performed following the national legislation by the Animal Experiments Inspectorate in Denmark. Male SCID (severe combined immunodeficiency) mice (bred in-house, age 9–12 weeks) had access to water and chow ad libitum. Anesthesia with approximately 2% isoflurane in 100% oxygen was applied and the mice were inoculated subcutaneously in the left shoulder with 1 × 10^6 AR42J cells 12–15 days before the experiment (tumor weight 364 ± 58 mg). For biodistribution, the AR42J xenografted mice were injected in the tail vein with [^68Ga]Ga-NOTA-NOC (50.2 ± 5 pmol, 627 ± 116 kBq, n = 4), [^68Ga]Ga-DOTA-NOC (42.5 ± 6 pmol, 509 ± 24 kBq, n = 3), or [^18F]AlF-NOTA-NOC (47.0 ± 10 pmol, 1017 ± 279 kBq, n = 3 for each time point). After 1 or 3 h, the mice were sacrificed and the organs were collected and weighed. The organ radioactivities were quantified in an Atomlab 950 well spectrometer which was cross calibrated to a high-purity germanium detector. The tissue uptake of injected radioactivity was determined as a percentage of the applied total injected activity per gram, %IA/g.
GraphPad Prism 6.07 was applied for statistical analysis and data fitting. One-way ANOVA and Bonferroni correction for multiple comparisons were applied for each organ. P values considered statistically significant were * p ≤ 0.05, ** p ≤ 0.01, *** p ≤ 0.001, and **** p ≤ 0.0001. The Student’s two-tailed t-test was applied for exploration statistics within a single organ-to-tumor comparison for one time point. Data are presented as the mean ± SEM.

[2] = Determination of LogP (1-octanol/Dulbecco's PBS partition); format: physicochemical
Description: Radiolabeled peptide (5 µL, 3–5 MBq) was added to Dulbecco’s PBS (495 µL) along with 1-Octanol (500 µL) in an Eppendorf tube. The tubes were vortexed for 5 min and centrifuged to separate phases. A volume of 10 µL of each phase was transferred to new Eppendorf tubes. The fractions were counted in an well counter (Atomlab 950) and LogP were calculated [[…]].

C[C@@H](O)[C@@H]1NC(=O)[C@H](CCCCN)NC(=O)[C@@H](Cc2c[nH]c3ccccc23)NC(=O)[C@H](Cc2cccc3ccccc23)NC(=O)[C@@H](NC(=O)[C@@H](Cc2ccccc2)NC(=O)CN2CCN(CC(=O)O)CCN(CC(=O)O)CCN(CC(=O)O)CC2)CSSC[C@@H](C(=O)N[C@H](CO)[C@@H](C)O)NC1=O [[^68Ga]Ga-DOTA-NOC, metal not drawn, reference compound] ({DOTA}-[dF]C[1Nal][dW]KTC[Thr(ol)]; disulfide 2-7 (inferred))
tumor-to-blood ratio, 1 h p.i. ([1]; AR42J xenograft mice): 35 | tumor-to-liver ratio, 1 h p.i. ([1]; AR42J xenograft mice): 3.7 | tumor uptake at 1 h p.i. ([1]; male SCID mice, subcutaneous AR42J xenograft, tail vein injection app. 45 pmol, n = 3-4, mean ± SEM): 26.4 ± 10.8 % ID/g | partition coefficient, LogP [2]: −1.42
